US6455077B2, “Herbal composition and method of manufacturing such composition for the management of gynecological disorders” (Dabur Research Foundation, priority 2001, dated 2002)

System: rat isolated uterus
Test: Uterotonic (oxytocic) activity on isolated uterus of stilbestrol-primed rats, compared with 5-HT
Design: species or system Wistar female albino rats
Conditions: isolated uterus horn of stilbestrol dipropionate (1 mg/kg i.p., 24 h) pre-treated rats, de Jalon's solution
Description: The above two samples were assayed for their effect on Uterotonic activity using Wistar female albino rats.
The uterotonic property of the test extracts were assessed in two test areas.
1. The oxytocic activity of the Sample A and Sample B is compared with uterine stimulant 5-HT.
Female rats weighing between 150-200 g were pre-treated with stilbestrol dipropionate, 1 mg/kg intra peritoneally 24 h prior to the experiment. The rats were killed by a swift blow on the head and exsanguinated. The uterus of rat dissected and the two horns divided. One horn is suspended in the bath. The rhythmic contractions are abolished by using de jalon's solution. When the spontaneous contractions became regular, the responses to Extracts of Sample A and Sample B and other agonists were recorded using a Frontal lever, isometrically connected to a polygraph.

For `CN1CC(=O)N=C1N.NCCc1c[nH]c2ccc(O)cc12.O=S(=O)(O)O` [Formulation 5-HT, 5-hydroxytryptamine creatinine sulphate], the “In-vitro treatment (uterine contraction)” value was 1. The control drug 5-HT induced a dose related increase in the height of contraction of rat isolated uterus. and Uterine contraction.
